Values quoted from earlier work, collected in PubChem BioAssay AID1259410 (Chemical Carcinogenesis Research Information System (CCRIS), 2018).

System: rodent tumor promotion studies, tumor incidence
Assay: CCRIS tumor promotion studies
Conditions: Route [Promoter]: ORAL

CCC1(c2ccccc2)C(=O)NC(=O)NC1=O
outcome (Carcinogen: DIMETHYLNITROSAMINE, 62-75-9, Doses [Carcinogen]: 5 UG/G ONCE, Doses [Promoter]: 0, 500 PPM IN THE DRINKING WATER FOR 24 WK BEGINNING POST CARCINOGEN DOSE (STUDY DURATION: 26 WK), Route [Carcinogen]: INTRAPERITONEAL, Species: MOUSE, Strain/Sex: B6C3F1/MALE): liver: adenoma | outcome (Carcinogen: METHYL(ACETOXYMETHYL)NITROSAMINE, 56856-83-8, Doses [Carcinogen]: 0.05 MMOL/KG IN 5 ML STERILE PHOSPHATE BUFFER ONCE, Doses [Promoter]: 0, 500 PPM IN DRINKING WATER BEGINNING 2 WK POST CARCINOGEN DOSE AND CONTINUING FOR 78 WK (STUDY DURATION: 80 WK), Route [Carcinogen]: INTRAPERITONEAL, Species: RAT, Strain/Sex: F344/MALE): thyroid: follicular cell adenoma or follicular cell carcinoma or c-cell tumor; l | outcome (Carcinogen: METHYLNITROSOUREA, Doses [Carcinogen]: 20 MG/KG 2/WK FOR 4 WK, Doses [Promoter]: 0.05% IN DIET FOR 32 WK, Route [Carcinogen]: INTRAPERITONEAL, Species: RAT, Strain/Sex: F344/MALE): thyroid gland: adenocarcinoma | outcome (Carcinogen: N,N-DIETHYLNITROSAMINE, 55-18-5, Doses [Carcinogen]: 75 MG/KG IN SALINE ONCE AT 5 WK OF AGE, Doses [Promoter]: 0, 500 PPM IN DIET FOR 45 WK BEGINNING 2 WK POST CARCINOGEN TREATMENT (STUDY DURATION: 47 WK), Route [Carcinogen]: INTRAPERITONEAL, Species: RAT, Strain/Sex: F344/MALE): liver: hepatocellular adenoma | outcome (Carcinogen: N,N-DIETHYLNITROSAMINE, 55-18-5, Doses [Carcinogen]: 75 MG/KG IN SALINE ONCE AT 5 WK OF AGE, Doses [Promoter]: 0, 500 PPM IN DIET FOR 46-72 WK BEGINNING 2 WK POST CARCINOGEN TREATMENT (STUDY DURATION: 46-72 WK), Route [Carcinogen]: INTRAPERITONEAL, Species: RAT, Strain/Sex: F344/MALE): liver: hepatocellular adenoma | outcome (Carcinogen: N-BIS(2-HYDROXYPROPYL)NITROSAMINE, Doses [Carcinogen]: 70 MG/100 G BW 1/WK FOR 4 OR 6 WK, Doses [Promoter]: 500 PPM IN DIET FROM WK 5-16 OR 7-18, Route [Carcinogen]: SUBCUTANEOUS, Species: RAT, Strain/Sex: WISTAR/MALE): thyroid gland: follicular, papillary, and solid adenoma, carcinoma | outcome (Carcinogen: N-METHYL-N-NITROSOUREA, 684-93-5, Doses [Carcinogen]: 30 MG/KG BW ONCE AT 3 MO OF AGE, Doses [Promoter]: 0, 50 MG/100 G IN DIET FOR 7 MO BEGINNING 7 MO POST CARCINOGEN DOSE (STUDY DURATION: 14 MO), Route [Carcinogen]: INTRAVENOUS, Species: RAT, Strain/Sex: LOBUND-WISTAR/MALE): prostate/seminal vesicle: adenocarcinoma | outcome (Carcinogen: N-METHYL-N-NITROSOUREA, 684-93-5, Doses [Carcinogen]: 30 MG/KG BW ONCE, Doses [Promoter]: 0, 0.5% IN DIET FOR DURATION OF STUDY BEGINNING POST CARCINOGEN DOSE(STUDY DURATION: 14 MO), Route [Carcinogen]: INTRAVENOUS, Species: RAT, Strain/Sex: LOBUND-WISTAR/MALE): lung: carcinoma, prostate/seminal vesicles: tumor | outcome (Carcinogen: N-NITROSODIETHYLAMINE, 55-18-5, Doses [Carcinogen]: 5 UG/G BW ONCE AT 15 D OF AGE, Doses [Promoter]: 0, 500 PPM IN DRINKING WATER BEGINNING AT 4 WK OF AGE AND CONTINUING FOR DURATION OF STUDY (STUDY DURATION: 28 WK), Route [Carcinogen]: INTRAPERITONEAL, Species: MOUSE, Strain/Sex: C3H/HENCR/FEMALE): liver: hepatocellular adenoma | outcome (Carcinogen: N-NITROSODIETHYLAMINE, 55-18-5, Doses [Carcinogen]: 5 UG/G BW ONCE AT 15 D OF AGE, Doses [Promoter]: 0, 500 PPM IN DRINKING WATER BEGINNING AT 4 WK OF AGE AND CONTINUING FOR DURATION OF STUDY (STUDY DURATION: 28 WK), Route [Carcinogen]: INTRAPERITONEAL, Species: MOUSE, Strain/Sex: C3H/HENCR/MALE): liver: hepatocellular adenoma | outcome (Carcinogen: N-NITROSODIETHYLAMINE, 55-18-5, Doses [Carcinogen]: 75 MG IN STERILE SALINE ONCE, Doses [Promoter]: 0, 500 PPM IN DIET BEGINNING 2 WK POST CARCINOGEN DOSE AND CONTINUING FOR DURATION OF STUDY (STUDY DURATION: 78 WK), Route [Carcinogen]: INTRAPERITONEAL, Species: RAT, Strain/Sex: F344/MALE): liver: hepatocellular adenoma or carcinoma; thyroid gland: follicular cell adeno | outcome (Carcinogen: N-NITROSODIETHYLAMINE, 55-18-5, Doses [Carcinogen]: 75 MG ONCE, Doses [Promoter]: 0, 500 PPM IN DRINKING WATER BEGINNING 2 WK POST CARCINOGEN DOSE AND CONTINUING FOR DURATION OF STUDY (STUDY DURATION: 5, Route [Carcinogen]: INTRAPERITONEAL, Species: RAT, Strain/Sex: F344/MALE): liver: hepatocellular adenoma | outcome (Carcinogen: N-NITROSODIETHYLAMINE, 55-18-5, Doses [Carcinogen]: 75 MG ONCE, Doses [Promoter]: 0, 500 PPM IN DRINKING WATER BEGINNING 2 WK POST CARCINOGEN DOSE AND CONTINUING FOR DURATION OF STUDY (STUDY DURATION: 7, Route [Carcinogen]: INTRAPERITONEAL, Species: RAT, Strain/Sex: F344/MALE): liver: hepatocellular carcinoma; thyroid gland: follicular cell adenoma or adeno | outcome (Carcinogen: N-NITROSODIETHYLAMINE, 55-18-5, Doses [Carcinogen]: 90 MG/KG BW ONCE, Doses [Promoter]: 0, 500 PPM IN DIET FOR 53 WK BEGINNING 2 WK POST CARCINOGEN DOSE (STUDY DURATION: 55 WK), Route [Carcinogen]: INTRAPERITONEAL, Species: MOUSE, Strain/Sex: D2B6F1/MALE): liver: hepatocellular adenoma, hepatocellular carcinoma, hepatoblastoma | outcome (Carcinogen: N-NITROSODIETHYLAMINE, 7119-92-8, Doses [Carcinogen]: 80 MG/KG ONCE, Doses [Promoter]: 0, 500 PPM IN DIET BEGINNING 1 WK POST CARCINOGEN DOSE AND CONTINUING FOR 168 D (STUDY DURATION: 259 D), Route [Carcinogen]: INTRAPERITONEAL, Species: MOUSE, Strain/Sex: B6C3F1/MALE): liver: hepatocellular adenoma or carcinoma | outcome (Carcinogen: TAMOXIFEN, 10540-29-1, Doses [Carcinogen]: 420 PPM IN DIET FOR 3 MO, Doses [Promoter]: 0, 0.1% (W/V) IN DRINKING WATER FOR LIFE BEGINNING POST CARCINOGEN TREATMENT (STUDY DURATION: LIFETIME), Route [Carcinogen]: ORAL, Species: RAT, Strain/Sex: WISTAR/FEMALE): liver: tumor
